Consider 27 compounds from article PMC9962224, “Novel Inhibitors of Acetyl- and Butyrylcholinesterase Derived from Benzohydrazides: Synthesis, Evaluation and Docking Study” (Pharmaceuticals, 2023).

Experiment [1] has as its target T1, AChE (obtained from electric eel; EeAChE) (Electrophorus electricus, UniProt O42275).
T1 construct: AChE (obtained from electric eel); purchased Merck (Prague, Czech Republic); host or cells: electric eel (natural source)
In words: biochemical. The format is biochemical. The settings on record: for Selectivity BChE/AChE: SI = ratio of IC50 for BChE/IC50 for AChE, above 1 = stronger inhibition of AChE; for IC50: electric eel AChE, mean ± SD from three independent experiments. An excerpt: (§1) Hydrazinecarboxamides 1–3 were examined in vitro for their potential to inhibit the function of AChE (obtained from electric eel) and BChE from equine serum using Ellman’s spectrophotometric method (Table 2). The activities are expressed as IC50 values, i.e., concentrations leading to 50% inhibition of enzymatic activity. Based on the IC50 values for AChE and BChE, we calculated selectivity indexes (SI) that quantified the selectivity for each cholinesterase. SI is the ratio of IC50 for BChE/IC50 for AChE.
(§2) The enzyme activity in the final reaction mixture (2000 µL) was 0.2 U/mL, the concentration of ATCh (or BTCh) was 40 µM, and the concentration of DTNB was 100 µM for all reactions. The investigated derivatives were dissolved in DMSO and then diluted with demineralized water (conductivity 3 μS, equipment supplier BKG Water Treatment, Hradec Králové, Czech Republic) to a concentration of 1000 µM. Five different inhibitor concentrations were used for all tested compounds in the final reaction mixture. The final concentration of DMSO was 0.2%. All experiments were performed in triplicate. The average values of the reaction rate (v0-uninhibited reaction, vi-inhibited reaction) were used to construct the dependence of v0/vi on the concentration of inhibitors. IC50 values were calculated from obtained regression curve equations.
(§3) Acetylcholinesterase originating from electric eels (Electrophorus electricus L.; EeAChE) and butyrylcholinesterase obtained from equine serum (EqBChE) were used.

Experiment [2] addresses T2, BChE from equine serum (EqBChE) (Equus caballus, UniProt P81908).
T2 construct: BChE from equine serum; purchased Merck (Prague, Czech Republic); host or cells: equine serum (natural source)
The experiment in a line: biochemical. The format is biochemical. To be noted: for IC50: equine serum BChE, mean ± SD from three independent experiments.
From the text: as §1, §2, §3

SMILES strings stand for the structures.

T1 sequence (O42275 24-633): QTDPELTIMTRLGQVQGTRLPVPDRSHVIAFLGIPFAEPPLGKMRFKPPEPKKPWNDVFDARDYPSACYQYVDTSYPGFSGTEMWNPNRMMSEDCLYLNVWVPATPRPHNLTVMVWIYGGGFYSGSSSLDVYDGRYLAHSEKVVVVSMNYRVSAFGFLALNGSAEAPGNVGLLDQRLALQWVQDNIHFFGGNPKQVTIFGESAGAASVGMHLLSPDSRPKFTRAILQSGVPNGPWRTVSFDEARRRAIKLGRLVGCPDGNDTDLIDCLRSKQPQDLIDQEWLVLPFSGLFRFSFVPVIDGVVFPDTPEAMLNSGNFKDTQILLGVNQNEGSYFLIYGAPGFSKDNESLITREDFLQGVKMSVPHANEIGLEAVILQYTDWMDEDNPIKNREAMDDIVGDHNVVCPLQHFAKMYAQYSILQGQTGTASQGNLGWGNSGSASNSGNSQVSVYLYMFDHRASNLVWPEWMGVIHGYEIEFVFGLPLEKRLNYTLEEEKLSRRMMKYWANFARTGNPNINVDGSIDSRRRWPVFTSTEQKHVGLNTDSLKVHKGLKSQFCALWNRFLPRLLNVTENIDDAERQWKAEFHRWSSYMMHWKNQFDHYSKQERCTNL
T2 sequence (P81908 whole entry): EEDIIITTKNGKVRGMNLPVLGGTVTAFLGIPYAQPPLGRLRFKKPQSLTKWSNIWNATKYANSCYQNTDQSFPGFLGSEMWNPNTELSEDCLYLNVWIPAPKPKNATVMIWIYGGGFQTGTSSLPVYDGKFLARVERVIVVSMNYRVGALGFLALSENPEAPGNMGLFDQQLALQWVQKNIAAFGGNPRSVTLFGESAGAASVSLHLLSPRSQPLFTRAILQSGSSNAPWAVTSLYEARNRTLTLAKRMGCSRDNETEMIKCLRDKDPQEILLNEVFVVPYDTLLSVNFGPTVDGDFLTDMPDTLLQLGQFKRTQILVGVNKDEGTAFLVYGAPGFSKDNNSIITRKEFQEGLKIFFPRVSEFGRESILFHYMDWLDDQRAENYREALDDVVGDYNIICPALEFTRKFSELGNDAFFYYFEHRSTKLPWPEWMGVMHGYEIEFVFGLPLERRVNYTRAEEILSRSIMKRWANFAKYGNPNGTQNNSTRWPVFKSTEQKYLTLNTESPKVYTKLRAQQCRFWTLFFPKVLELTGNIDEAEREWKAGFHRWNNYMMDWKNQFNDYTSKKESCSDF

For `CCCCCCCCCCCCCNC(=O)NNC(=O)c1cccc(C(F)(F)F)c1` [2b, N-Tridecyl-2-[3-(trifluoromethyl)benzoyl]hydrazine-1-carboxamide], in experiment [1], the “Selectivity BChE/AChE” value turned out to be 4.6 and the IC50 (usually the point on the concentration scale where inhibition reaches its midpoint) amounted to 63.9 ± 0.83 µM. It took 292 ± 10.7 µM to reach half-maximal inhibition in experiment [2] (IC50).
As for `CCCCCCCCCCCCCNC(=O)NNC(=O)c1ccc(F)cc1` [1d, 2-(4-Fluorobenzoyl)-N-tridecylhydrazine-1-carboxamide], in experiment [1], the “Selectivity BChE/AChE” value turned out to be 8.0 and the concentration for half-maximal inhibition (IC50) was determined as 60.16 ± 0.53 µM. Moreover, the IC50 in experiment [2] was found to be 483 ± 20.2 µM.
Consider `CCCCCCCCCCCCCNC(=O)NNC(=O)c1cccc([N+](=O)[O-])c1` [2f, 2-(3-Nitrobenzoyl)-N-tridecylhydrazine-1-carboxamide], for which the “Selectivity BChE/AChE” value in experiment [1] was found to be 3.8. The IC50 in experiment [1] was determined as 62.5 ± 1.79 µM; in experiment [2] it was 236 ± 6.54 µM.
Regarding `CNC(=O)NNS(=O)(=O)c1ccc(C(F)(F)F)cc1` [3c, N-Methyl-2-{[4-(trifluoromethyl)phenyl]sulfonyl}hydrazine-1-carboxamide], the concentration for half-maximal inhibition (IC50) came out at 71.1 ± 0.94 µM in experiment [1] and 425 ± 13.2 µM in experiment [2].
Turning to `CNC(=O)NNC(=O)c1ccc(C#N)cc1` [1m, 2-(4-Cyanobenzoyl)-N-methylhydrazine-1-carboxamide], the “Selectivity BChE/AChE” value in experiment [1] was found to be 8.1. For the same compound, the IC50 in experiment [1] worked out at 55.64 ± 0.27 µM; in experiment [2], 448 ± 39 µM.
Turning to `CNC(=O)NNC(=O)c1ccc(Br)cc1` [1g, 2-(4-Bromobenzoyl)-N-methylhydrazine-1-carboxamide], in experiment [1], the “Selectivity BChE/AChE” value was determined as 7.1 and the IC50 was 50.6 ± 1.55 µM. In experiment [2], this compound yielded an IC50 of 359.6 ± 2.17 µM.
Consider `CNC(=O)NNC(=O)c1ccc(Oc2ccccc2)cc1` [1w, N-Methyl-2-(4-phenoxybenzoyl)hydrazine-1-carboxamide], for which the “Selectivity BChE/AChE” value in experiment [1] stood at 4.0. Further, the IC50 turned out to be 75 ± 0.84 µM in experiment [1] and 302.3 ± 2.11 µM in experiment [2].
For `CNC(=O)NNC(=O)c1ccc(C)cc1` [1o, N-Methyl-2-(4-methylbenzoyl)hydrazine-1-carboxamide] the same measures were 4.6, 62.29 ± 0.56 µM and 284 ± 13.2 µM.
For `CCCCCCCCCCCCCNC(=O)NNC(=O)c1ccccc1C(F)(F)F` [2d, N-Tridecyl-2-[2-(trifluoromethyl)benzoyl]hydrazine-1-carboxamide], in that order: 5.2, 80.4 ± 2.1 µM and 422 ± 12.4 µM.
For `CNC(=O)NNC(=O)c1ccccc1Br` [2k, 2-(2-Bromobenzoyl)-N-methylhydrazine-1-carboxamide], in experiment [1], the “Selectivity BChE/AChE” value was >8.4 and the IC50 amounted to 59.4 ± 1.83 µM. The IC50 in experiment [2] is > 500 µM.
`CCCCCCCCCCCCCNC(=O)NNC(=O)c1ccc(Br)cc1` [1h, 2-(4-Bromobenzoyl)-N-tridecylhydrazine-1-carboxamide]: in experiment [1], the “Selectivity BChE/AChE” value worked out at 0.4 and the IC50 is 72.66 ± 0.67 µM. Also, in experiment [2] (1g vs. 1h), the “Fold improvement of BChE inhibition, tridecyl vs. N-methyl analog” value was 13.3 ×. This compound gave an IC50 in experiment [2] of 27.08 ± 0.07 µM.
With `CNC(=O)NNC(=O)c1ccc(OC(F)(F)F)cc1` [1a, N-Methyl-2-[4-(trifluoromethoxy)benzoyl]hydrazine-1-carboxamide], in experiment [1], the “Selectivity BChE/AChE” value was found to be 3.6 and the midpoint of inhibition, the IC50, lay at 56.76 ± 0.49 µM. In experiment [2], it took 204 ± 13.5 µM to reach half-maximal inhibition (IC50).
Take `CCCCCCCCCCCCCNC(=O)NNC(=O)c1ccc(C(C)(C)C)cc1` [1r]: in experiment [1], the “Selectivity BChE/AChE” value is recorded as 0.8 and the IC50 worked out at 75.25 ± 0.43 µM. For the same compound, the midpoint of inhibition in experiment [2], the IC50, lay at 57.24 ± 0.23 µM.
For `CCCCCCCCCCCCCNC(=O)NNC(=O)c1ccc(C)cc1` [1p, 2-(4-Methylbenzoyl)-N-tridecylhydrazine-1-carboxamide], in that order: 2.8, 100 ± 2.1 µM and 277 ± 6.5 µM.
For `CCCCCCCCCCCCCNC(=O)NNC(=O)c1ccc(OC)cc1` [1v, 2-(4-Methoxybenzoyl)-N-tridecylhydrazine-1-carboxamide], in that order: 4.5, 83.6 ± 3.16 µM and 376 ± 17 µM.
For `CNC(=O)NNC(=O)c1ccc(OC)cc1` [1u, 2-(4-Methoxybenzoyl)-N-methylhydrazine-1-carboxamide], in that order: 3.0, 57.2 ± 0.92 µM and 171 ± 8.36 µM.
`CNC(=O)NNC(=O)c1ccc([N+](=O)[O-])cc1` [1k, N-Methyl-2-(4-nitrobenzoyl)hydrazine-1-carboxamide]: the “Selectivity BChE/AChE” value in experiment [1] is given as 3.3. Moreover, the IC50 in experiment [1] stood at 54 ± 2.21 µM; in experiment [2], 178 ± 9.13 µM.
For `CCCCCCCCCCCCCNC(=O)NNC(=O)c1ccc(Oc2ccccc2)cc1` [1x, 2-(4-Phenoxybenzoyl)-N-tridecylhydrazine-1-carboxamide] the same measures were 6.3, 58.3 ± 3.29 µM and 368 ± 14.3 µM.
For `CNC(=O)NNC(=O)c1ccc(O)cc1` [1aa, 2-(4-Hydroxybenzoyl)-N-methylhydrazine-1-carboxamide], in experiment [1], the “Selectivity BChE/AChE” value is 3.7 and 67.6 ± 1.3 µM corresponded to half-maximal inhibition (IC50). In experiment [2], this compound yielded an IC50 of 247 ± 18.4 µM.
Consider `CNC(=O)NNC(=O)c1ccc(F)cc1` [1c, 2-(4-Fluorobenzoyl)-N-methylhydrazine-1-carboxamide], for which, in experiment [1], the “Selectivity BChE/AChE” value is reported as 6.4 and it took 57.2 ± 1.66 µM to reach half-maximal inhibition (IC50). The same compound yielded an IC50 in experiment [2] of 366 ± 78.4 µM.
On to `CNC(=O)NNC(=O)c1cccc([N+](=O)[O-])c1` [2e, N-Methyl-2-(3-nitrobenzoyl)hydrazine-1-carboxamide], for which the “Selectivity BChE/AChE” value in experiment [1] is on record as >7.4. The values for the IC50 in experiment [1] and in experiment [2] were 67.4 ± 1.72 µM and > 500 µM, respectively.
For `CCCCCCCCCCCCCNC(=O)NNC(=O)c1ccc(OC(F)(F)F)cc1` [1b, N-Tridecyl-2-[4-(trifluoromethoxy)benzoyl]hydrazine-1-carboxamide] the same measures were 1.9, 65.1 ± 1.15 µM and 125.2 ± 1.17 µM.
Turning to `CNC(=O)NNC(=O)c1ccc(Cl)cc1` [1e, 2-(4-Chlorobenzoyl)-N-methylhydrazine-1-carboxamide], in experiment [1], the “Selectivity BChE/AChE” value amounted to 7.2. In addition, the figures for the half-inhibitory concentration (IC50) in experiment [1] and in experiment [2] were 44.1 ± 1.79 µM and 319 ± 12.6 µM, respectively.
As to `CNC(=O)NNC(=O)c1cccc(C(F)(F)F)c1` [2a, N-Methyl-2-[3-(trifluoromethyl)benzoyl]hydrazine-1-carboxamide], the “Selectivity BChE/AChE” value in experiment [1] is listed as 3.7. Further, the values for the IC50 in experiment [1] and in experiment [2] were 61.3 ± 1 µM and 225 ± 7.84 µM, respectively.
For `CNC(=O)NNC(=O)c1cccc(Br)c1` [2i, 2-(3-Bromobenzoyl)-N-methylhydrazine-1-carboxamide] the same measures were 6.8, 51.9 ± 2 µM and 354 ± 8.79 µM.
For `CNC(=O)NNC(=O)c1ccc(I)cc1` [1i, 2-(4-Iodobenzoyl)-N-methylhydrazine-1-carboxamide], in experiment [1], the “Selectivity BChE/AChE” value is >6.8 and the IC50 was 73.8 ± 1.78 µM. In addition, the IC50 in experiment [2] is > 500 µM.
As to `CCCCCCCCCCCCCNC(=O)NNC(=O)c1ccc([N+](=O)[O-])cc1` [1l, 2-(4-Nitrobenzoyl)-N-tridecylhydrazine-1-carboxamide], in experiment [1], the “Selectivity BChE/AChE” value worked out at 0.4 and the IC50 turned out to be 53.7 ± 1.2 µM. In experiment [2], the IC50 came out at 22.31 ± 0.09 µM. Further, the “Fold superiority of BChE inhibition over parent compound P2” value in experiment [2] (vs. P2) was found to be 12.4 ×.
